Tests used:
Assay in all cases: radiometric filter-binding kinase assay
MAPK1 (human) = MAPK1 (human) (UniProt P28482)
PRKCA (human) = PRKCA (human) (UniProt P17252)
PAK6 (human) = PAK6 (human) (UniProt Q9NQU5)
MST4 (human) = MST4 (human) (UniProt Q9P289)
PKN2 (human) = PKN2 (human) (UniProt Q16513)
BTK (human) = BTK (human) (UniProt Q06187)
[1] = test system: PAK2 (human), Q13177 [T402E]
MARK2 (human) = MARK2 (human) (UniProt Q7KZI7)
FGFR1 (human) = FGFR1 (human) (UniProt P11362)
CAMKK2 (human) = CAMKK2 (human) (UniProt Q96RR4)
RPS6KA3 KD1 KD2 (human) = RPS6KA3 KD1 KD2 (human) (UniProt P51812)
RPS6KA3 KD1 KD2 (human), sequence (P51812 whole entry, looked up): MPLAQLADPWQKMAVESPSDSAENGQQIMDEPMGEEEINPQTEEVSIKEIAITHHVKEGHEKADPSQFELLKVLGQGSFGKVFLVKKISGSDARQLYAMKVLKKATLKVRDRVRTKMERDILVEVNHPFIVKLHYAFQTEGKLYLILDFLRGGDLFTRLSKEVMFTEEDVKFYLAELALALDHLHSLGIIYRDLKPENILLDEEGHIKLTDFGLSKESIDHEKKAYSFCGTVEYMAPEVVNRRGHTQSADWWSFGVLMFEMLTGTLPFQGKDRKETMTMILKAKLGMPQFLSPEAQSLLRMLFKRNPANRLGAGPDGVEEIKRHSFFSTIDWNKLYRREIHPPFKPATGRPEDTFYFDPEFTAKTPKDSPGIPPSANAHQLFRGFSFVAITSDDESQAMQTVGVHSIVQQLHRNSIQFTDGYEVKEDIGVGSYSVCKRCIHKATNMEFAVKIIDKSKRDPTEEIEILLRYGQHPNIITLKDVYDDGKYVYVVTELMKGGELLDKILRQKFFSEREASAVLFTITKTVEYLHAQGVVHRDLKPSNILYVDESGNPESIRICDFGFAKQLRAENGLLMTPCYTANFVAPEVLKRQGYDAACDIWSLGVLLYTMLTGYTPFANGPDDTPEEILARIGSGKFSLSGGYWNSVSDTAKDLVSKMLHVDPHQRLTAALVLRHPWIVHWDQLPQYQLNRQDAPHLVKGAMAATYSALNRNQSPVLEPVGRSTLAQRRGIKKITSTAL

MAPK11 (human) = MAPK11 (human) (UniProt Q15759)
IKBKB (human) = IKBKB (human) (UniProt O14920)
STK3 (human) = STK3 (human) (UniProt Q13188)
MYLK (human) = MYLK (human) (UniProt Q15746)
MYLK (human), sequence (Q15746 whole entry, looked up): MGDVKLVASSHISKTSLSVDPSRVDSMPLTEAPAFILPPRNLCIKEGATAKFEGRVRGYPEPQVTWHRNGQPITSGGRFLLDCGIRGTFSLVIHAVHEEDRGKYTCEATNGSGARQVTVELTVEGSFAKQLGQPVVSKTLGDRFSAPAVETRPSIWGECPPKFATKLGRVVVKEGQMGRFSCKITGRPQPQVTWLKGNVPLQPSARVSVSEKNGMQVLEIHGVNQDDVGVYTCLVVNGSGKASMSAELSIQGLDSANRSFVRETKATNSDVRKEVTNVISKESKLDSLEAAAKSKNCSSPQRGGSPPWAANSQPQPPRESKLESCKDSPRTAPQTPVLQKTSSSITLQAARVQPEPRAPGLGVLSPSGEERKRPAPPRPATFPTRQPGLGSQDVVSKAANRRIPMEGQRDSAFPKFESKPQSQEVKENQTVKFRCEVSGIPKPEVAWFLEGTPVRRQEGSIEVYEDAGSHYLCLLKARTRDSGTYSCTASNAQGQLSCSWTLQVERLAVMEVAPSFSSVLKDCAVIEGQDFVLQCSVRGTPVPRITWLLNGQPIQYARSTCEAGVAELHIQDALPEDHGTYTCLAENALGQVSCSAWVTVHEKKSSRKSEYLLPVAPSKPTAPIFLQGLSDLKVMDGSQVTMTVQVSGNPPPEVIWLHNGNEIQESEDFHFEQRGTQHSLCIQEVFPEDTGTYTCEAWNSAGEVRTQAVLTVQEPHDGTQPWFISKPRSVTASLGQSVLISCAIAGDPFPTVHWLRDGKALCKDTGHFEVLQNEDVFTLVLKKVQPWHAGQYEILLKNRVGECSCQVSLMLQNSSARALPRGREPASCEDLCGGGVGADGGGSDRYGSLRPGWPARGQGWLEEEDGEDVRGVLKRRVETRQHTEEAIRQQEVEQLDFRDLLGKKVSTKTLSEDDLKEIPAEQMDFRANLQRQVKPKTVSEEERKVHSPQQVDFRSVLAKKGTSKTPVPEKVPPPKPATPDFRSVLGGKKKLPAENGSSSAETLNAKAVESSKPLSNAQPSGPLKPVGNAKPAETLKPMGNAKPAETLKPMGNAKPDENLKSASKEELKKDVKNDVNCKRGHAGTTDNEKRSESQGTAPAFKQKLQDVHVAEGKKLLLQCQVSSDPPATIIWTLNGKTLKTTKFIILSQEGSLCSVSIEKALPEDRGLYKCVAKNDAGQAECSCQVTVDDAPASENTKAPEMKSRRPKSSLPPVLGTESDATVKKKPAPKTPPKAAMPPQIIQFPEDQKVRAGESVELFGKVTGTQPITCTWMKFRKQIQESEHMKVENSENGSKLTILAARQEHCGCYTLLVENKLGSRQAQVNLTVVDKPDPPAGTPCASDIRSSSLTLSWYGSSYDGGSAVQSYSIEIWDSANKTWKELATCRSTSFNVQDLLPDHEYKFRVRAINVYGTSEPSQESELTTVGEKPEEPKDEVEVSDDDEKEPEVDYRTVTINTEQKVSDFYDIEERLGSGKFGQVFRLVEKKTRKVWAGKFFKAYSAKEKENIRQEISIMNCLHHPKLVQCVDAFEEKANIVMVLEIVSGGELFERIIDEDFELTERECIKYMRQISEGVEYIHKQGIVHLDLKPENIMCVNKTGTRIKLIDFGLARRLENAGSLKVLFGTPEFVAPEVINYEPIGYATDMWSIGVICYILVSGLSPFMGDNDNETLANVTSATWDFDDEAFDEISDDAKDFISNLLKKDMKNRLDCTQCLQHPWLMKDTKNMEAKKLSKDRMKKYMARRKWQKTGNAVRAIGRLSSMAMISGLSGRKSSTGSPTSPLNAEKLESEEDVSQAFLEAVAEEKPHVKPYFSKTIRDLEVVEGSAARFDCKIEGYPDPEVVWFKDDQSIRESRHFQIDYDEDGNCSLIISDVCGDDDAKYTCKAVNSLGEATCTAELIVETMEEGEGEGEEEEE

PRKACA (human) = PRKACA (human) (UniProt P17612)
PIM2 (human) = PIM2 (human) (UniProt Q9P1W9)
MINK1 (human) = MINK1 (human) (UniProt Q8N4C8)
SRPK1 (human) = SRPK1 (human) (UniProt Q96SB4)
SRPK1 (human), sequence (Q96SB4 whole entry, looked up): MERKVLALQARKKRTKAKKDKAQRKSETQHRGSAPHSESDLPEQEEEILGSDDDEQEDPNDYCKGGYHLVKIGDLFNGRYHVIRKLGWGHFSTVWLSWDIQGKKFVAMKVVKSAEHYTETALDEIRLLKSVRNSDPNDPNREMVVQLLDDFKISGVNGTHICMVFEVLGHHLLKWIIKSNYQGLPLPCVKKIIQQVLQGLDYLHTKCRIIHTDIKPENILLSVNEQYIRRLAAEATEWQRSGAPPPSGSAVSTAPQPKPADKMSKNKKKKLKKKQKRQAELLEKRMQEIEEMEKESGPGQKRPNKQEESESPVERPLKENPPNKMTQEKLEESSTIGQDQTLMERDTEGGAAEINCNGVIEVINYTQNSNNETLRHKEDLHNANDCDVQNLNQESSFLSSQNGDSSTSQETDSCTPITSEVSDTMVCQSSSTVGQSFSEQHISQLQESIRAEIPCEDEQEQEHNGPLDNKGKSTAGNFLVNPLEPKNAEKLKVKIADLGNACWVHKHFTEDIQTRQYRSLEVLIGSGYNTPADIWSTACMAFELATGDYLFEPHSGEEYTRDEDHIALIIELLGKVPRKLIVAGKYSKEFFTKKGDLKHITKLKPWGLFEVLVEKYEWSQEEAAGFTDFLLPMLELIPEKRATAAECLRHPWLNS

TBK1 (human) = TBK1 (human) (UniProt Q9UHD2)
BRSK1 (human) = BRSK1 (human) (UniProt Q8TDC3)
BRSK1 (human), sequence (Q8TDC3 whole entry, looked up): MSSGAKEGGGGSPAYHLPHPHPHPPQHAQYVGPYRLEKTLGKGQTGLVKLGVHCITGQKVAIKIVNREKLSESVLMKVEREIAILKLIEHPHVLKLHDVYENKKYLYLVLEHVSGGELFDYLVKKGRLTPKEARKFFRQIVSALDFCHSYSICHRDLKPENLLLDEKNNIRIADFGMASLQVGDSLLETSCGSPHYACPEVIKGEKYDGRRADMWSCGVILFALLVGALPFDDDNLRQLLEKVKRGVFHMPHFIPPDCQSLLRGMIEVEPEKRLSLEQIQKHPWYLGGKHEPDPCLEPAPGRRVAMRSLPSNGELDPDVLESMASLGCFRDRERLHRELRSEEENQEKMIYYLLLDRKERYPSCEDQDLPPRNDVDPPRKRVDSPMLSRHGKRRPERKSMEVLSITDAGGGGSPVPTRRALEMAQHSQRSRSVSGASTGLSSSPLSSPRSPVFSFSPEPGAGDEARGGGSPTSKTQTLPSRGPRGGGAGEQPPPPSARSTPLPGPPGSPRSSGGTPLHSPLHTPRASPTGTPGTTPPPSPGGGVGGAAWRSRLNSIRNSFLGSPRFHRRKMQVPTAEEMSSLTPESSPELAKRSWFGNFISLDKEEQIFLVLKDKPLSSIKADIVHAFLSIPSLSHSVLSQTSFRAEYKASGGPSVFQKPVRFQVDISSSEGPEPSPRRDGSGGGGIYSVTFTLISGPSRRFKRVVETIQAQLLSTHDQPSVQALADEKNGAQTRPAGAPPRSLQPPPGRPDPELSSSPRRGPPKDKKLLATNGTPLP

[2] = target: STK11 CAB39 STRADA (human) (UniProt Q9Y376+Q7RTN6+Q15831)
EPHB3 (human) = EPHB3 (human) (UniProt P54753)
PIM3 (human) = PIM3 (human) (UniProt Q86V86)
PRKCZ (human) = PRKCZ (human) (UniProt Q05513)
PRKCZ (human), sequence (Q05513 whole entry, looked up): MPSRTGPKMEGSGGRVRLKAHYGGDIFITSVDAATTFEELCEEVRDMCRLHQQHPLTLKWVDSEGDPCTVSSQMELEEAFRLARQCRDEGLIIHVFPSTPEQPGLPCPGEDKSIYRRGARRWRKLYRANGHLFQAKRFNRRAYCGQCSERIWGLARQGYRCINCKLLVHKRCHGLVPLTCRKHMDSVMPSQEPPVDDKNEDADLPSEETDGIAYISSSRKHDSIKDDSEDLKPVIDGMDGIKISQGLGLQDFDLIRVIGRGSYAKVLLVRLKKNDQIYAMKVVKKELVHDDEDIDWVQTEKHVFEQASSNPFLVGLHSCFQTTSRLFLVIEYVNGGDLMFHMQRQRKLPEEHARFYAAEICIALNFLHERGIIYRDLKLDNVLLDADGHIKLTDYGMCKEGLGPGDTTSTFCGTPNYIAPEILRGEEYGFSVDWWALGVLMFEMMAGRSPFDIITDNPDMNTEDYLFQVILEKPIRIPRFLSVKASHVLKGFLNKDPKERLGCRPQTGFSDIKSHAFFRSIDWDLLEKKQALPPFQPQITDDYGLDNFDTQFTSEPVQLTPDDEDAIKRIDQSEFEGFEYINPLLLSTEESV

[3] = test system: SGK1 (human), O00141 [S422D]
[4] = test system: RPS6KB1 (human), P23443 [T412E]
MAPK8 (human) = MAPK8 (human) (UniProt P45983)
PLK1 (human) = PLK1 (human) (UniProt P53350)

MAPK1 (human), sequence (P28482 whole entry, looked up): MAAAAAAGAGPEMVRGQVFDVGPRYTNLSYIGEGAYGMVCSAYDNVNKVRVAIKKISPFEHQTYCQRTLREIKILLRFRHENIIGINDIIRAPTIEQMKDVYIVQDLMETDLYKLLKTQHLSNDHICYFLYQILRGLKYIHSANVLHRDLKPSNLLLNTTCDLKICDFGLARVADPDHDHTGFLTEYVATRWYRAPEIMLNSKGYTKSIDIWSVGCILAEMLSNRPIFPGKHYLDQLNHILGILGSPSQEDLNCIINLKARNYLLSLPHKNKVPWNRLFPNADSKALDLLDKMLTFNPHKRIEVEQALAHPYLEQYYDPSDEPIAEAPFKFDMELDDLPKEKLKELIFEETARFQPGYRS

Question: How did the residual activity (MAPK1 (human); compound 0.01 µM) turn out when CNc1nc(-c2ccc3c(N)n[nH]c3c2)cc(N2C[C@@H](C(=O)NC3CCCCC3)CC[C@H]2C)n1 was run?
Answer: Its residual activity is 117%.

Question: What about the residual activity (MAPK1 (human); compound 0.1 µM) of the same compound?
Answer: Its residual activity is 111%.

Question: And the residual activity (MAPK1 (human); compound 1.0 µM)?
Answer: Its residual activity is 99%.

Question: And the residual activity (PRKCA (human); compound 0.01 µM)?
Answer: The residual activity was 104%.

Question: What about the residual activity (PRKCA (human); compound 0.1 µM) of the same compound?
Answer: The residual activity was 105%.

Question: And the residual activity (PRKCA (human); compound 1.0 µM)?
Answer: The residual activity was 94%.

Question: And the residual activity (PAK6 (human); compound 0.01 µM)?
Answer: Its residual activity is 108%.

Question: What about the residual activity (PAK6 (human); compound 0.1 µM) of the same compound?
Answer: The residual activity was 120%.

Question: What about the residual activity (PAK6 (human); compound 1.0 µM) of the same compound?
Answer: The residual activity was 124%.

Question: What about the residual activity (MST4 (human); compound 0.01 µM) of the same compound?
Answer: The residual activity was 112%.

Question: And the residual activity (MST4 (human); compound 0.1 µM)?
Answer: The residual activity was 108%.

Question: What about the residual activity (MST4 (human); compound 1.0 µM) of the same compound?
Answer: The residual activity was 119%.

Question: And the residual activity (PKN2 (human); compound 0.01 µM)?
Answer: The residual activity was 90%.

Question: And the residual activity (PKN2 (human); compound 0.1 µM)?
Answer: Its residual activity is 102%.

Question: And the residual activity (PKN2 (human); compound 1.0 µM)?
Answer: The residual activity was 82%.

Question: And the residual activity (BTK (human); compound 0.01 µM)?
Answer: Its residual activity is 126%.

Question: And the residual activity (BTK (human); compound 0.1 µM)?
Answer: Its residual activity is 121%.

Question: And the residual activity (BTK (human); compound 1.0 µM)?
Answer: Its residual activity is 110%.

Question: And the residual activity ([1]; compound 0.01 µM)?
Answer: The residual activity was 105%.

Question: What about the residual activity ([1]; compound 0.1 µM) of the same compound?
Answer: Its residual activity is 119%.

Question: And the residual activity ([1]; compound 1.0 µM)?
Answer: The residual activity was 105%.

Question: What about the residual activity (MARK2 (human); compound 0.01 µM) of the same compound?
Answer: Its residual activity is 113%.

Question: And the residual activity (MARK2 (human); compound 0.1 µM)?
Answer: Its residual activity is 114%.

Question: And the residual activity (MARK2 (human); compound 1.0 µM)?
Answer: Its residual activity is 109%.

Question: What about the residual activity (FGFR1 (human); compound 0.01 µM) of the same compound?
Answer: The residual activity was 119%.

Question: What about the residual activity (FGFR1 (human); compound 0.1 µM) of the same compound?
Answer: Its residual activity is 119%.

Question: What about the residual activity (FGFR1 (human); compound 1.0 µM) of the same compound?
Answer: The residual activity was 110%.

Question: What about the residual activity (CAMKK2 (human); compound 0.01 µM) of the same compound?
Answer: Its residual activity is 112%.

Question: What about the residual activity (CAMKK2 (human); compound 0.1 µM) of the same compound?
Answer: The residual activity was 123%.

Question: And the residual activity (CAMKK2 (human); compound 1.0 µM)?
Answer: Its residual activity is 127%.

Question: What about the residual activity (RPS6KA3 KD1 KD2 (human); compound 0.01 µM) of the same compound?
Answer: The residual activity was 96%.

Question: And the residual activity (RPS6KA3 KD1 KD2 (human); compound 0.1 µM)?
Answer: Its residual activity is 97%.

Question: And the residual activity (RPS6KA3 KD1 KD2 (human); compound 1.0 µM)?
Answer: The residual activity was 79%.

Question: And the residual activity (MAPK11 (human); compound 0.01 µM)?
Answer: Its residual activity is 113%.

Question: And the residual activity (MAPK11 (human); compound 0.1 µM)?
Answer: The residual activity was 129%.

Question: What about the residual activity (MAPK11 (human); compound 1.0 µM) of the same compound?
Answer: Its residual activity is 109%.

Question: What about the residual activity (IKBKB (human); compound 0.01 µM) of the same compound?
Answer: Its residual activity is 105%.

Question: And the residual activity (IKBKB (human); compound 0.1 µM)?
Answer: The residual activity was 112%.

Question: What about the residual activity (IKBKB (human); compound 1.0 µM) of the same compound?
Answer: Its residual activity is 98%.

Question: And the residual activity (STK3 (human); compound 0.01 µM)?
Answer: The residual activity was 116%.

Question: And the residual activity (STK3 (human); compound 0.1 µM)?
Answer: Its residual activity is 128%.

Question: What about the residual activity (STK3 (human); compound 1.0 µM) of the same compound?
Answer: The residual activity was 112%.

Question: And the residual activity (MYLK (human); compound 0.01 µM)?
Answer: Its residual activity is 116%.

Question: What about the residual activity (MYLK (human); compound 0.1 µM) of the same compound?
Answer: Its residual activity is 113%.

Question: What about the residual activity (MYLK (human); compound 1.0 µM) of the same compound?
Answer: Its residual activity is 92%.

Question: What about the residual activity (PRKACA (human); compound 0.01 µM) of the same compound?
Answer: Its residual activity is 103%.

Question: What about the residual activity (PRKACA (human); compound 0.1 µM) of the same compound?
Answer: Its residual activity is 111%.

Question: And the residual activity (PRKACA (human); compound 1.0 µM)?
Answer: Its residual activity is 98%.

Question: What about the residual activity (PIM2 (human); compound 0.01 µM) of the same compound?
Answer: The residual activity was 97%.

Question: And the residual activity (PIM2 (human); compound 0.1 µM)?
Answer: The residual activity was 100%.

Question: And the residual activity (PIM2 (human); compound 1.0 µM)?
Answer: Its residual activity is 97%.

Question: What about the residual activity (MINK1 (human); compound 0.01 µM) of the same compound?
Answer: Its residual activity is 121%.

Question: What about the residual activity (MINK1 (human); compound 0.1 µM) of the same compound?
Answer: The residual activity was 110%.

Question: What about the residual activity (MINK1 (human); compound 1.0 µM) of the same compound?
Answer: The residual activity was 105%.

Question: And the residual activity (SRPK1 (human); compound 0.01 µM)?
Answer: Its residual activity is 106%.

Question: What about the residual activity (SRPK1 (human); compound 0.1 µM) of the same compound?
Answer: Its residual activity is 120%.

Question: And the residual activity (SRPK1 (human); compound 1.0 µM)?
Answer: The residual activity was 106%.

Question: What about the residual activity (TBK1 (human); compound 0.01 µM) of the same compound?
Answer: Its residual activity is 110%.

Question: What about the residual activity (TBK1 (human); compound 0.1 µM) of the same compound?
Answer: Its residual activity is 115%.

Question: And the residual activity (TBK1 (human); compound 1.0 µM)?
Answer: The residual activity was 109%.

Question: What about the residual activity (BRSK1 (human); compound 0.01 µM) of the same compound?
Answer: Its residual activity is 110%.

Question: What about the residual activity (BRSK1 (human); compound 0.1 µM) of the same compound?
Answer: Its residual activity is 95%.

Question: And the residual activity (BRSK1 (human); compound 1.0 µM)?
Answer: Its residual activity is 57%.

Question: What about the residual activity ([2]; compound 0.01 µM) of the same compound?
Answer: The residual activity was 104%.

Question: And the residual activity ([2]; compound 0.1 µM)?
Answer: The residual activity was 124%.

Question: And the residual activity ([2]; compound 1.0 µM)?
Answer: The residual activity was 100%.

Question: What about the residual activity (EPHB3 (human); compound 0.01 µM) of the same compound?
Answer: The residual activity was 106%.

Question: What about the residual activity (EPHB3 (human); compound 0.1 µM) of the same compound?
Answer: Its residual activity is 107%.

Question: What about the residual activity (EPHB3 (human); compound 1.0 µM) of the same compound?
Answer: Its residual activity is 91%.

Question: What about the residual activity (PIM3 (human); compound 0.01 µM) of the same compound?
Answer: Its residual activity is 105%.

Question: What about the residual activity (PIM3 (human); compound 0.1 µM) of the same compound?
Answer: The residual activity was 112%.

Question: And the residual activity (PIM3 (human); compound 1.0 µM)?
Answer: Its residual activity is 97%.

Question: What about the residual activity (PRKCZ (human); compound 0.01 µM) of the same compound?
Answer: Its residual activity is 113%.

Question: And the residual activity (PRKCZ (human); compound 0.1 µM)?
Answer: Its residual activity is 105%.

Question: And the residual activity (PRKCZ (human); compound 1.0 µM)?
Answer: The residual activity was 72%.

Question: What about the residual activity ([3]; compound 0.01 µM) of the same compound?
Answer: The residual activity was 96%.

Question: What about the residual activity ([3]; compound 0.1 µM) of the same compound?
Answer: The residual activity was 96%.

Question: And the residual activity ([3]; compound 1.0 µM)?
Answer: Its residual activity is 37%.

Question: And the residual activity ([4]; compound 0.01 µM)?
Answer: The residual activity was 111%.

Question: And the residual activity ([4]; compound 0.1 µM)?
Answer: Its residual activity is 106%.

Question: And the residual activity ([4]; compound 1.0 µM)?
Answer: The residual activity was 100%.

Question: What about the residual activity (MAPK8 (human); compound 0.01 µM) of the same compound?
Answer: Its residual activity is 92%.

Question: And the residual activity (MAPK8 (human); compound 0.1 µM)?
Answer: Its residual activity is 108%.

Question: What about the residual activity (MAPK8 (human); compound 1.0 µM) of the same compound?
Answer: Its residual activity is 99%.

Question: And the residual activity (PLK1 (human); compound 0.01 µM)?
Answer: The residual activity was 95%.

Question: What about the residual activity (PLK1 (human); compound 0.1 µM) of the same compound?
Answer: Its residual activity is 113%.
